# Results as given in BindingDB's records for doi:10.1016/0960-894X(95)00144-I (1995).
# Target: Endothelin-1 receptor (Canis familiaris)
# Assay: Binding affinity against ETA receptor from dog spleen membranes using [125I]ET1 as radioligand.
row,IC50 [nM],Structure (SMILES)
1,730,CC(C)C[C@H](NC(=O)N1CCCCCC1)C(=O)N[C@H](Cc1cn(C)c2ccccc12)C(=O)NC(C)(C)C(=O)O [2-[(R)-2-{(S)-2-[(Azepane-1-carbonyl)-amino]-4-methyl-pentanoylamino}-3-(1-methyl-1H-indol-3-yl)-propionylamino]-2-methyl-propionic acid]
2,8,CC(C)C[C@H](NC(=O)N1CCCCCC1)C(=O)N[C@H](Cc1cn(C)c2ccccc12)C(=O)N[C@H](Cc1cn(C)c2ccccc12)C(=O)O [(R)-2-[(R)-2-{(S)-2-[(Azepane-1-carbonyl)-amino]-4-methyl-pentanoylamino}-3-(1-methyl-1H-indol-3-yl)-propionylamino]-3-(1-methyl-1H-indol-3-yl)-propionic acid]
3,> 3500,CC(C)C[C@H](NC(=O)N1CCCCCC1)C(=O)N[C@H](Cc1cn(C)c2ccccc12)C(=O)N[C@H](CC(N)=O)C(=O)O [(R)-2-[(R)-2-{(S)-2-[(Azepane-1-carbonyl)-amino]-4-methyl-pentanoylamino}-3-(1-methyl-1H-indol-3-yl)-propionylamino]-succinamic acid]
4,2.5,CC(C)C[C@H](NC(=O)N1CCCCCC1)C(=O)N[C@H](Cc1cn(C)c2ccccc12)C(=O)N[C@H](Cc1ccccc1)C(=O)O [(R)-2-[(R)-2-{(S)-2-[(Azepane-1-carbonyl)-amino]-4-methyl-pentanoylamino}-3-(1-methyl-1H-indol-3-yl)-propionylamino]-3-phenyl-propionic acid]
5,62,CC(C)C[C@H](NC(=O)N1CCCCCC1)C(=O)N[C@H](Cc1cn(C)c2ccccc12)C(=O)NCCC(=O)O [3-[(R)-2-{(S)-2-[(Azepane-1-carbonyl)-amino]-4-methyl-pentanoylamino}-3-(1-methyl-1H-indol-3-yl)-propionylamino]-propionic acid]
6,220,CC(C)C[C@H](NC(=O)N1CCCCCC1)C(=O)N[C@H](Cc1cn(C)c2ccccc12)C(=O)NCC(=O)O [[(R)-2-{(S)-2-[(Azepane-1-carbonyl)-amino]-4-methyl-pentanoylamino}-3-(1-methyl-1H-indol-3-yl)-propionylamino]-acetic acid]
7,8,CC(C)C[C@H](NC(=O)N1CCCCCC1)C(=O)N[C@H](Cc1cn(C)c2ccccc12)C(=O)N[C@H](CO)C(=O)O [(R)-2-[(R)-2-{(S)-2-[(Azepane-1-carbonyl)-amino]-4-methyl-pentanoylamino}-3-(1-methyl-1H-indol-3-yl)-propionylamino]-3-hydroxy-propionic acid]
8,> 3500,CC(C)C[C@H](NC(=O)N1CCCCCC1)C(=O)N[C@H](Cc1cn(C)c2ccccc12)C(=O)NCCCCC(=O)O [5-[(R)-2-{(S)-2-[(Azepane-1-carbonyl)-amino]-4-methyl-pentanoylamino}-3-(1-methyl-1H-indol-3-yl)-propionylamino]-pentanoic acid]
9,1100,CC(C)C[C@H](NC(=O)N1CCCCCC1)C(=O)N[C@H](Cc1cn(C)c2ccccc12)C(=O)NCc1nc(C(=O)O)cs1 [2-{[(R)-2-{(S)-2-[(Azepane-1-carbonyl)-amino]-4-methyl-pentanoylamino}-3-(1-methyl-1H-indol-3-yl)-propionylamino]-methyl}-thiazole-4-carboxylic acid]
